Measurements as given in ChEMBL document CHEMBL1124338, “Amine peroxides as potential antimalarials” (J Med Chem, 1989).

Assays:
Mus musculus [1] = assay: Compound was evaluated for (T-C) survival time of the treated mice (Mus musculus) against Plasmodium berghei at 40 mg/Kg; assay type: functional
Plasmodium falciparum [2] = assay: In vitro antimalarial activity against Plasmodium falciparum D6; assay type: functional, organism-based
Plasmodium falciparum [3] = assay: In vitro antimalarial activity against Plasmodium falciparum W-2; assay type: functional, organism-based
Mus musculus [4] = assay: Compound was evaluated for (T-C) survival time of the treated mice (Mus musculus) against Plasmodium berghei at 160 mg/kg; assay type: functional
Mus musculus [5] = assay: Compound was evaluated for (T-C) survival time of the treated mice (Mus musculus) against Plasmodium berghei at 640 mg/kg; assay type: functional

Row | SMILES | T-C (Mus musculus [1]) | IC50 (Plasmodium falciparum [2]) | IC50 (Plasmodium falciparum [3]) | T-C (Mus musculus [4]) | T-C (Mus musculus [5])
1 | CC(C)(C)OOCN1CCN(c2ccccc2)CC1 | 0.9 days | 25.7 µM | 39.8 µM | 0.7 days | 0.7 days
2 | CC1CCN(COOC(C)(C)C)CC1 | 0.3 days | 19.7 µM | 25.2 µM | 0.1 days | 0.7 days
3 | CC(C)(C)OOCN1CCC(c2ccccc2)CC1 | 0.3 days | 27.3 µM | 26.9 µM | 0.5 days | 0.8 days
4 | CN(COOC(C)(C)C)C1CCCCC1 | 0.5 days | 25.1 µM | 26.6 µM | 1.3 days | 0.7 days
5 | CCN(COOC(C)(C)C)c1ccccc1 | 0.5 days | 54 µM | 39.4 µM | 0.3 days | 1.3 days
6 | CC(C)(C)OO [TERT-BUTYL HYDROPEROXIDE] | 0.1 days | 203 µM | 240 µM | 0.3 days | 0.7 days
